From PMC6151456, “Screening a Natural Product-Based Library against Kinetoplastid Parasites” (Molecules : A Journal of Synthetic Chemistry and Natural …, 2017)
Like-named read-outs stand apart in the source and are kept apart here.

Key:
[1] = system: L. donovani DD8 promastigotes; experiment: L. donovani DD8 promastigote viability assay (resazurin); format: cell-based, Leishmania donovani; settings: for IC50: 14 point dose response, top 16.7 µM
Protocol: (§1) For the primary screen, compounds were prepared as a stock concentration of 5 mM in 100% DMSO and tested in duplicate points for two independent experiments (n = 2) at final assay concentrations of 20 µM and 16.7 µM for the L. donovani intracellular amastigote and promastigote viability assays, respectively. Primary screening against T. b. brucei was undertaken at 5 µM and for T. cruzi at 10 µM final concentrations. […] These compounds were then retested in a 14 point format to determine the IC50 value against the parasite, and against HEK-293, THP-1 and 3T3 cells to determine the selectivity to the parasite. […] A top dose of 20 µM was used in the T. b. brucei assay and 18.3 µM for T.cruzi assay, in 14 point dose repsonse curves as described.
This assay was established to assess the activity of the compound library on the extracellular form of the parasites. An initial cell density of 1 × 10^5 parasites/mL was inoculated into a 75 cm^2 flask (in a total of 30 mL of M199 medium + 10% (v/v) HIFBS) and incubated at 27 °C. After 96 h the parasites reached the mid-log phase and were seeded in black, clear bottom 384-well plates (Greiner-bio-one®, Monroe, UT, USA) at a concentration of 5 × 10^5 parasites/mL in a volume of 55 µL using a Bravo automated liquid handling platform (Agilent, Santa Clara, CA, USA). Compound stocks were diluted 1:25 in M199 media without HIFBS using a dilution plate (Greiner-bio-one®, Monroe, UT, USA). The compounds were dispensed in 5 µL using a Bravo and parasites incubated for an additional 68 h at 27 °C. Resazurin (Cayman Chemicals®, Ann Arbor, MI, USA) at 0.142 mM final assay concentration was then dispensed into plates at a volume of 10 µL/well using a Multidrop™ 384 Reagent Dispenser (Thermo Scientific®, Newington, NH, USA) and incubated at 27 °C. The plates were read after 4 h on an EnVision™ Multilabel plate reader (PerkinElmer, Waltham, MA, USA) using fluorometry with an excitation of 530 nm and emission 590 nm. For the L. donovani DD8 promastigote viability assay, 1 µM of amphotericin B was used as positive control and 0.4% DMSO as negative control.

THP-1 cells = experiment: THP-1 cytotoxicity (selectivity); format: cell-based, human
Protocol: as §1

HEK-293 cells = experiment: HEK-293 resazurin viability assay (cytotoxicity, selectivity); format: cell-based, human
Protocol: (§2) Primary screening against T. b. brucei was undertaken at 5 µM and for T. cruzi at 10 µM final concentrations.
Cytotoxicity testing was undertaken as previously described.

[2] = system: L. donovani DD8 intracellular amastigotes; experiment: L. donovani DD8 intracellular amastigote high content imaging assay; format: cell-based, Leishmania donovani; settings: 14 point dose response, top 20 µM
Protocol: as §1
A high content, high-throughput imaging assay was used to identify compounds active against L. donovani DD8 intracellular amastigotes as described previosuly.

[3] = system: T. cruzi intracellular amastigotes; experiment: T. cruzi intracellular amastigote image-based assay; format: cell-based, Trypanosoma cruzi; settings: for IC50: n = 2, top 18.3 µM
Protocol: as §1
(§3) The efficacy of compounds against T. cruzi was undertaken using a phenotypic, high-throughput image-based assay as previously described.

3T3 host cells = experiment: 3T3 host cell cytotoxicity (selectivity); format: cell-based, mouse; settings: relative to T. cruzi
Protocol: as §2, §3

[4] = system: T. b. brucei bloodstream form strain 427; experiment: T. b. brucei resazurin viability assay; format: cell-based, Trypanosoma brucei brucei
Protocol: as §1
The efficacy of compounds against T. b. brucei bloodstream form was evaluated using a resazurin-based assay, previously described in the literature.

P. falciparum (Dd2) = settings: cited from earlier work
P. falciparum (3D7) = settings: cited from earlier work
L. donovani amastigotes = system: L. donovani amastigotes; parameters: method as in PMID 22720099; settings: previously reported; read-out: IC50, amastigote assay; cited from earlier work
[5] = Leishmania donovani, n = 2, read-out: IC50 (mean ± SD), L. donovani DD8 promastigotes
[6] = relative to L. donovani DD8 intracellular amastigotes
[7] = relative to L. donovani DD8 promastigotes
[8] = Leishmania donovani, n = 2, read-out: IC50 (mean ± SD), L. donovani DD8 intracellular amastigotes
[9] = Trypanosoma cruzi, intracellular amastigotes, read-out: IC50 (mean ± SD), T. cruzi
[10] = Leishmania donovani, read-out: IC50 (mean ± SD), L. donovani DD8 intracellular amastigotes, n = 2
[11] = Leishmania donovani, at 16.7 µM
[12] = Trypanosoma brucei, n = 2, 14 point dose response, top 20 µM, read-out: IC50 (mean ± SD), T. b. brucei
[13] = n = 2, 14 point dose response, top 20 µM, read-out: IC50 (mean ± SD), T. b. brucei
[14] = Trypanosoma brucei, reference compounds, read-out: IC50, T. b. brucei

Row | Compound | Selectivity index (SI) compared to THP-1 cells (THP-1 cells; [6]) | Selectivity index (SI) compared to HEK-293 cells (HEK-293 cells; [6]) | IC50 [3, 9] | Selectivity index (SI) compared to HEK-293 cells (HEK-293 cells; relative to T. cruzi) | Selectivity index (SI) compared to 3T3 cells (3T3 host cells) | Selectivity index (SI) compared to HEK-293 cells (HEK-293 cells; relative to T. b. brucei) | IC50 [4, 12] | further results
1 | C[C@@H]1[C@H](O)[C@@H](C)/C=C/C=C/C=C/C=C/C=C/C=C/C=C/[C@H](O[C@@H]2O[C@H](C)[C@@H](O)[C@H](N)[C@@H]2O)C[C@@H]2O[C@](O)(C[C@@H](O)C[C@@H](O)[C@H](O)CC[C@@H](O)C[C@@H](O)CC(=O)O[C@H]1C)C[C@H](O)[C@H]2C(=O)O [Amphotericin B, reference compound] | > 9.61 | > 41.65 | – | – | – | – | – | IC50 [1, 5]: 120 ± 10 nM; Selectivity index (SI) compared to THP-1 cells (THP-1 cells; [7]): > 16.39; Selectivity index (SI) compared to HEK-293 cells (HEK-293 cells; [7]): > 68.27; IC50 [2, 8]: 200 ± 20 nM
2 | O=C(Cn1ccnc1[N+](=O)[O-])NCc1ccccc1 [Benznidazole, reference compound] | – | – | 3360 ± 1520 nM | > 44.84 | – | – | – | –
3 | COc1c(OC)c2c(c(CCN(C)C)c1SC)Sc1c(CCN(C)C)c(SC)c(OC)c(OC)c1S2 [Compound 1, Lissoclinotoxin E] | 1.13 | > 2.26 | – | > 2.52 | > 4.67 | > 17.68 | – | IC50 ([3]; Trypanosoma cruzi, read-out: IC50 (mean ± SD), T. cruzi, intracellular amastigotes): < 5000 nM; IC50 ([3]; read-out: IC50 (mean ± SD), T. cruzi, intracellular amastigotes, listed as Lissoclinotoxin E (1)): 3920 ± 380 nM; Selectivity index (SI) compared to THP-1 cells (THP-1 cells; [7]): 6.88; Selectivity index (SI) compared to HEK-293 cells (HEK-293 cells; [7]): > 11.72; IC50 [2, 10]: < 5000 nM; IC50 ([2]; read-out: IC50 (mean ± SD), L. donovani DD8 intracellular amastigotes, n = 2, listed as Lissoclinotoxin E (1)): 4410 ± 240 nM
4 | CC(C)=CCC[C@]1(C)C=Cc2c(O)c3c(c(CC=C(C)C)c2O1)O[C@]12C(=C[C@@H]4C[C@H]1C(C)(C)O[C@@]2(C/C=C(/C)C(=O)O)C4=O)C3=O [Compound 4, Gambogic acid] | – | – | 1870 ± 70 nM | 1.50 | 1.00 | 7.11 | 270 ± 40 nM | inhibition at 16.7 µM [1, 11]: 100%
5 | COc1c(C)c2c(c(O)c1C/C=C(\C)CCC(=O)O)C(=O)OC2 [Compound 5, Mycophenolic acid, reference compound] | – | – | 1590 ± 30 nM | 0.37 | 0.13 | 1.01 | 510 ± 100 nM | –
6 | O=C1N[C@@H]2C(=C[C@H](O)[C@@H](O)[C@H]2O)c2cc3c(c(O)c21)OCO3 [Compound 6, Narciclasine] | – | – | – | 0.21 | 3.28 | 1.09 | – | IC50 ([3]; intracellular amastigotes, read-out: IC50 (mean ± SD), T. cruzi): 200 ± 10 nM; inhibition of L. donovani DD8 promastigotes ([1]; at 16.7 µM): 100% inhibition at 16.7 µM; IC50 [4, 13]: 30 ± 10 nM
7 | Cc1ccc(S(=O)(=O)n2ccc3c2C(=O)C2=C(NCCS2(=O)=O)C3=O)cc1 [Compound 7, 6-tosyl-2,3-dihydro-[1, 4]thiazino[3,2-f]indole-5,9(1H,6H)-dione 4,4-dioxide] | – | – | 3550 ± 380 nM | 1.46 | 1.33 | 4.19 | 680 ± 10 nM | IC50 (P. falciparum (Dd2); read-out: IC50, Dd2 strain of P. falciparum): 509 ± 30.9 nM; IC50 (P. falciparum (3D7); read-out: IC50, 3D7 strain of P. falciparum): 546 ± 119 nM
8 | O=C1C2=C(C(=O)c3ccccc31)S(=O)(=O)CCN2 [Compound 9, 3,4-dihydro-2H-naphtho[2,3-b][1,4]thiazine-5,10-dione 1,1-dioxide] | – | – | 3820 ± 610 nM | 1.11 | 1.24 | – | – | IC50 ([3]; intracellular amastigotes, listed as 3,4-Dihydro-2H-naphtho[2,3-b]-[1,4] thiazine-5,10-dione 1,1-dioxide (9), read-out: IC50 (mean ± SD), T. cruzi): 3810 ± 600 nM; inhibition at 16.7 µM [1, 11]: 100%
9 | COc1c(SC)c(CCN(C)C)c2sc3c(CCN(C)C)c(SC)c(OC)c(OC)c3ssc2c1OC [Compound 11, Lissoclinotoxin F] | > 1.20 | > 2.40 | – | – | – | – | – | IC50 ([1]; Leishmania donovani, read-out: IC50 (mean ± SD), L. donovani DD8 promastigotes, n = 2): 5510 ± 300 nM; Selectivity index (SI) compared to THP-1 cells (THP-1 cells; [7]): > 1.81; Selectivity index (SI) compared to HEK-293 cells (HEK-293 cells; [7]): > 3.62; IC50 [2, 10]: 8310 ± 670 nM
10 | CCOC(=O)c1c(C)n(-c2ccc(OC)cc2)c2ccc(O)c(CN(CC)CC)c12 [Compound 12, ethyl 4-((diethylamino)methyl)-5-hydroxy-1-(4-methoxyphenyl)-2-methyl-1H-indole-3-carboxylate] | > 1.50 | > 2.97 | – | – | – | – | – | activity against T. cruzi [3]: no significant activity; inhibition at 16.7 µM [1, 11]: 100%; activity against T. b. brucei [4]: no significant activity; IC50 [2, 8]: 11100 ± 310 nM
11 | N=C(N)c1ccc(/N=N/Nc2ccc(C(=N)N)cc2)cc1 [Diminazene] | – | – | – | – | – | > 962.75 | 40 ± 10 nM | IC50 [4, 14]: 40.5 ± 12.8 nM
12 | CCCCCCCCCCCCCCCCOP(=O)([O-])OCC[N+](C)(C)C [Miltefosine, reference compound] | > 7.27 | > 13.12 | – | – | – | – | – | IC50 [1, 5]: 3480 ± 260 nM; IC50 (L. donovani amastigotes): 3100 ± 2300 nM; Selectivity index (SI) compared to THP-1 cells (THP-1 cells; [7]): > 5.74; Selectivity index (SI) compared to HEK-293 cells (HEK-293 cells; [7]): > 9.57; IC50 [2, 8]: 2540 ± 570 nM
13 | CC1CS(=O)(=O)CCN1/N=C/c1ccc([N+](=O)[O-])o1 (stereo not shown) [Nifurtimox, reference compound] | – | – | 620 ± 100 nM | > 243.03 | – | – | – | –
14 | N=C(N)c1ccc(OCCCCCOc2ccc(C(=N)N)cc2)cc1 [Pentamidine] | – | – | – | – | – | > 334.52 | 2 ± 1 nM | IC50 [4, 14]: 2.86 ± 1.46 nM
15 | COc1ccc(C[C@H](N)C(=O)N[C@H]2[C@@H](O)[C@H](n3cnc4c(N(C)C)ncnc43)O[C@@H]2CO)cc1 [Puromycin, reference compound] | – | – | 1650 ± 350 nM | 0.150 | – | 12.96 | 30 nM | IC50 [4, 14]: 39 ± 6.09 nM
16 | Psammaplysin F [Compound 14] | – | – | – | > 3.51 | > 1.90 | – | – | IC50 (P. falciparum (Dd2); read-out: IC50, P. falciparum Dd2): 1400 nM; IC50 ([3]; intracellular amastigotes, listed as Psammaplysin F (14), read-out: IC50 (mean ± SD), T. cruzi): 5630 ± 760 nM; IC50 (P. falciparum (3D7); read-out: IC50, P. falciparum 3D7): 870 nM
17 | Spermatinamine [Compound 2] | 0.80 | 0.64 | – | – | – | 5.89 | – | IC50 ([1]; n = 2, read-out: IC50 (mean ± SD), L. donovani DD8 promastigotes): 11900 ± 560 nM; IC50 (P. falciparum (3D7); read-out: antimalarial IC50, P. falciparum (3D7)): 230 nM; IC50 [4, 13]: 1000 ± 260 nM; Selectivity index (SI) compared to THP-1 cells (THP-1 cells; [7]): 0.41; Selectivity index (SI) compared to HEK-293 cells (HEK-293 cells; [7]): 0.33; IC50 ([2]; n = 2, read-out: IC50 (mean ± SD), L. donovani DD8 intracellular amastigotes): 6150 ± 50 nM
